Laboratory results from patent US20160256511A1, “COMPOSITIONS AND METHODS FOR THE TREATMENT OR PROPHYLAXIS OF CIRCADIAN PROTEIN RELATED CONDITIONS” (IN INGREDIENTS, INC., priority 2013, published 2016).

Experiments:
Format in all cases: cell-based, Porcine
Settings in all cases: 24 hr, all three concentrations (1 μM; 5 μM; 20 μM)
[1] = test system: SIRT1; assay: SIRT1 immunofluorescence in iPEC-1 cells treated with ursolic acid
Experimental: (§1) iPEC-1 cells were grown as a monolayer in DMEM with 10% fetal bovine serum (FBS) and the necessary supplements at 37° C. in a humidified incubator with 5% CO2. iPEC1 cells were seeded on 35 mm dishes. Experiments were initiated 48 hr after plating. Cells were treated with saline or with ursolic acid at three separate dosages (1 μM; 5 μM; or 20 μM) in the medium for 24 hr at 37° C. The cells were then washed with ice-cold PBS and fixed with 4% paraformaldehyde for 10 min at room temperature followed by permeabilization with 0.3% Triton X-100 for 10 min. After being washed with PBS three times, cells were incubated for 1 hr in PBS containing 10% normal goat serum blocking solution. The cells were subjected to immunofluorescence staining with the target specific antibodies (SIRT1, CLOCK and Bmal1) overnight at 4° C. The cells were then washed with cold PBS three times for 3 min each, and incubated with Alexa-labeled secondary antibodies (Invitrogen) at room temperature for 1 h. The cells were examined by fluorescence microscopy (a Nikon TE2000-S microscope, Nikon, Tokyo, Japan).

[2] = test system: CLOCK; assay: CLOCK immunofluorescence in iPEC-1 cells treated with ursolic acid
Experimental: as §1

[3] = test system: Bmal1; assay: Bmal1 immunofluorescence in iPEC-1 cells treated with ursolic acid
Experimental: as §1

## C[C@H]1[C@H](C)CC[C@]2(C(=O)O)CC[C@]3(C)C(=CC[C@@H]4[C@@]5(C)CC[C@H](O)C(C)(C)[C@@H]5CC[C@]43C)[C@H]12 [ursolic acid]
[1]
  intensity of immunofluorescence of SIRT1 compared with controls: significantly induced the intensity of immunofluorescence
[2]
  intensity of immunofluorescence of CLOCK compared with controls: significantly induced the intensity of immunofluorescence
[3]
  intensity of immunofluorescence of Bmal1 compared with controls: significantly induced the intensity of immunofluorescence
